Several values for one entry are separate records, joined by “and”; a condition that tells them apart may be missing. Equal entries are not always repeated. Entries after “also recorded” stand apart in the source; their conditions may differ.
Key:
SK-MEL-28 = assay: NCI panel growth inhibition, SK-MEL-28; assay type: cell-based; details: Homo sapiens, Melanoma
Source text: (§1) Compound I has also been tested in a battery of tumor cell assays known as the NCI panel.

HCT-15 = assay: NCI panel growth inhibition, HCT-15; assay type: cell-based; details: Homo sapiens, Colon Cancer
Source text: as §1

SF-268 = assay: NCI panel growth inhibition, SF-268; assay type: cell-based; details: Homo sapiens, CNS Cancer
Source text: as §1

IGROV1 = assay: NCI panel growth inhibition, IGROV1; assay type: cell-based; details: Homo sapiens, IGROV-1, Ovarian
Source text: as §1

A498 xenografts = assay: Renal cancer xenografts in nu/nu mice (FIG. 9); assay type: in vivo; details: 30 mg/kg BID, 20 days, female nu/nu mice
Procedure: Female nu/nu mice bearing A498 xenografts (human renal cancer cells) were maintained until tumor volume measured about 100 mm^3. At that point, treatment began with compound I at a rate of 30 mg/kg administered twice per day.

HOP-92 = assay: NCI panel growth inhibition, HOP-92; assay type: cell-based; details: Homo sapiens, Non-Small Cell Lung Cancer
Source text: as §1

p110β = target: T1, p110β (Homo sapiens, UniProt P42338); assay: Chick embryo fibroblast (CEF) transformation assay, p110β; assay type: cell-based; details: read-out: EC-50 for inhibition of functional activity of p110β
T1 construct: expressed in transfected cells; host or cells: chick embryo fibroblasts (CEF), viral transduction
T1 sequence (P42338 whole entry): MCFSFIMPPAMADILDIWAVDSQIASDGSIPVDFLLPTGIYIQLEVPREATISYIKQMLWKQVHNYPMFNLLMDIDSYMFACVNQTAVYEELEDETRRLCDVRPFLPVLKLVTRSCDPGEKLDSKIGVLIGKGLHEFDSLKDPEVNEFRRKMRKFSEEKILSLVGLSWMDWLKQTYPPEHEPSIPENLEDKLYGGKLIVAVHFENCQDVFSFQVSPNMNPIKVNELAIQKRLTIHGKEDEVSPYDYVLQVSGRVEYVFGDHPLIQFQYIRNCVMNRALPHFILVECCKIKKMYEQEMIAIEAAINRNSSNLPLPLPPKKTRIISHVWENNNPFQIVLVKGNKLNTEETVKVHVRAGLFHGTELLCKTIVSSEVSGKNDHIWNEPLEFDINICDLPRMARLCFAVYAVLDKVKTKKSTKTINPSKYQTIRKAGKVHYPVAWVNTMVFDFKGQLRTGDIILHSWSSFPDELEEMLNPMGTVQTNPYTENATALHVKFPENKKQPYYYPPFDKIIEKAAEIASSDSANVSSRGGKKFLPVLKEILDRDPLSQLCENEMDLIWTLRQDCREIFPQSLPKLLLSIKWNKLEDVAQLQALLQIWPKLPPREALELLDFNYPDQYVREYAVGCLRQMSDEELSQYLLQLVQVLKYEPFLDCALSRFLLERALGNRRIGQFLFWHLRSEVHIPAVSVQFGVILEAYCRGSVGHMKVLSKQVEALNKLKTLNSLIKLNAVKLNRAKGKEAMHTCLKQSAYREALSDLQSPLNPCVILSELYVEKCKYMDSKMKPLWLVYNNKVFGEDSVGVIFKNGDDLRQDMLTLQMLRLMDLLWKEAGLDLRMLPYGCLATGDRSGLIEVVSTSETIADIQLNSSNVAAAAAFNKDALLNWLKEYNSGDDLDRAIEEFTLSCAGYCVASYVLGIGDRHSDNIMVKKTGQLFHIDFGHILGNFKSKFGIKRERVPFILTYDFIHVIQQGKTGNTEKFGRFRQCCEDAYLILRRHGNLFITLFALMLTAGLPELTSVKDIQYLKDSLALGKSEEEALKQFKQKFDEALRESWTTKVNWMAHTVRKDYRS
Source text: (§2) Moreover, compound I has comparatively low activity on p110α in a cell-transformation system designed to measure functional activity of these kinases, but is a potent inhibitor of both p110β and p110δ in that assay. See Example 1. This chick embryo fibroblast (CEF) transformation system has been reported as a useful way to assess the functional activity of the PI3K signaling pathway. Denley, et al., “Oncogenic signaling of class I PI3K isoforms,” Oncogene, vol. 27(18), 2561-74 (2008). Transformation of CEF cells in the assay depends upon functional kinase activity. Kang, et al., Proc. Nat'l Acad. Sci. USA, vol. 103(5), 1289-94 (2006). The readout of this assay is based on the frequency of transformation of CEF cells exposed to viral vectors carrying a specific p110 isoform of interest.
(§3) Chick embryo fibroblasts (CEF) are transduced with viral stocks with versions of the human genes for the individual PI3K isoforms p110α, p110β, p110δ and p110γ. These transduced CEF lines are then plated in a growth medium where oncogenically transformed cells form foci that can then be stained and counted. […] Denley A, Kang S, Karst U and Vogt PK, “Oncogenic signaling of class 1 PI3K isoforms.” Oncogene (2008) 27: 2561-2574. FIG. 3 illustrates the readout of this assay.

[1] = test system: Akt phosphorylation in OVCAR-3 (ovarian cancer); assay: Phosphorylation of Akt in OVCAR-3 cells (FIG. 4); assay type: cell-based; details: OVCAR-3, 10 micromolar
Source text: This distinguishes compound I from other known PI3K inhibitors in development for treatment of solid tumors, which are believed to act primarily at the p110α isoform or on p110α plus other isoforms, or even on all PI3Ks plus mTOR.

PC-3 = assay: NCI panel growth inhibition, PC-3; assay type: cell-based; details: Homo sapiens, Prostate
Source text: as §1

SN12C = assay: NCI panel growth inhibition, SN12C; assay type: cell-based; details: Homo sapiens, Renal
Source text: as §1

ACHN = assay: NCI panel growth inhibition, ACHN; assay type: cell-based; details: Homo sapiens, Renal
Source text: as §1

SNB-75 = assay: NCI panel growth inhibition, SNB-75; assay type: cell-based; details: Homo sapiens, CNS Cancer
Source text: as §1

SK-MEL-2 = assay: NCI panel growth inhibition, SK-MEL-2; assay type: cell-based; details: Homo sapiens, Melanoma
Source text: as §1

PIKC3 = PIKC3 (Homo sapiens, UniProt Q8NEB9); assay: biochemical
Sequence of PIKC3 (Q8NEB9 whole entry): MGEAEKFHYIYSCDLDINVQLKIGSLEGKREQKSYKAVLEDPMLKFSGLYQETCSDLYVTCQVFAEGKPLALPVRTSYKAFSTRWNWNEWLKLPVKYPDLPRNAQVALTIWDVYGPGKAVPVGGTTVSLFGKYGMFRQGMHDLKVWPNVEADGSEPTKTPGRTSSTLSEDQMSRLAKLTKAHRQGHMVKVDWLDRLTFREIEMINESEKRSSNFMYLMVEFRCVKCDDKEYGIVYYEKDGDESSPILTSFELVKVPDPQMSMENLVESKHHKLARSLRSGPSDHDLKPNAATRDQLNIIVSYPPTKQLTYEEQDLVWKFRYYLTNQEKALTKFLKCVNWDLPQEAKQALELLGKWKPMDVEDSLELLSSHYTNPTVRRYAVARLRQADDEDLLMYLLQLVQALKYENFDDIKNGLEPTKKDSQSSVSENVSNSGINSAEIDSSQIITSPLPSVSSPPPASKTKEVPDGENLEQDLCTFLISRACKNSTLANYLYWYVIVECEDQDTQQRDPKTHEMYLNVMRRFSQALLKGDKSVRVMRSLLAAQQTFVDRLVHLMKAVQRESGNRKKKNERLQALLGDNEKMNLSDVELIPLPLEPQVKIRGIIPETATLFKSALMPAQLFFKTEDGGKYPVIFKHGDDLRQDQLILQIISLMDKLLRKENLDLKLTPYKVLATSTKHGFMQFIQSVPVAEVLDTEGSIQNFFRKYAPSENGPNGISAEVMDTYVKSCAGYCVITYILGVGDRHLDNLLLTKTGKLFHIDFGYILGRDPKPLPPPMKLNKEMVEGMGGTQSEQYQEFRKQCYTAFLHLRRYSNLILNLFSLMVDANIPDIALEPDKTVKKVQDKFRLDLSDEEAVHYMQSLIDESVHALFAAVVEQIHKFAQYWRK
Source text: This table provides IC-50's for inhibition of kinase activity of these other lipid kinases: […]

CAKI-1 = assay: NCI panel growth inhibition, CAKI-1; assay type: cell-based; details: Homo sapiens, Renal
Source text: as §1

HS 578T = assay: NCI panel growth inhibition, HS 578T; assay type: cell-based; details: Homo sapiens, Breast Cancer
Source text: as §1

A549 = assay: NCI panel growth inhibition, A549; assay type: cell-based; details: Homo sapiens, Non-Small Cell Lung Cancer
Source text: as §1

DNA-PK = DNA-PK (Homo sapiens, UniProt P78527); assay: Inhibition of kinase activity of other lipid kinases, DNA-PK; assay type: biochemical; details: read-out: IC-50 for inhibition of kinase activity, DNA-PK
SW-620 = assay: NCI panel growth inhibition, SW-620; assay type: cell-based; details: Homo sapiens, Colon Cancer
Source text: as §1

SF-295 = assay: NCI panel growth inhibition, SF-295; assay type: cell-based; details: Homo sapiens, CNS Cancer
Source text: as §1

SF-539 = assay: NCI panel growth inhibition, SF-539; assay type: cell-based; details: Homo sapiens, CNS Cancer
Source text: as §1

p110α = p110α (Homo sapiens, UniProt P42336); assay: Chick embryo fibroblast (CEF) transformation assay, p110α; assay type: cell-based; details: read-out: EC-50 for functional activity of p110α, highest concentration tested 2000 nM
Sequence of p110α (P42336 whole entry, change not shown): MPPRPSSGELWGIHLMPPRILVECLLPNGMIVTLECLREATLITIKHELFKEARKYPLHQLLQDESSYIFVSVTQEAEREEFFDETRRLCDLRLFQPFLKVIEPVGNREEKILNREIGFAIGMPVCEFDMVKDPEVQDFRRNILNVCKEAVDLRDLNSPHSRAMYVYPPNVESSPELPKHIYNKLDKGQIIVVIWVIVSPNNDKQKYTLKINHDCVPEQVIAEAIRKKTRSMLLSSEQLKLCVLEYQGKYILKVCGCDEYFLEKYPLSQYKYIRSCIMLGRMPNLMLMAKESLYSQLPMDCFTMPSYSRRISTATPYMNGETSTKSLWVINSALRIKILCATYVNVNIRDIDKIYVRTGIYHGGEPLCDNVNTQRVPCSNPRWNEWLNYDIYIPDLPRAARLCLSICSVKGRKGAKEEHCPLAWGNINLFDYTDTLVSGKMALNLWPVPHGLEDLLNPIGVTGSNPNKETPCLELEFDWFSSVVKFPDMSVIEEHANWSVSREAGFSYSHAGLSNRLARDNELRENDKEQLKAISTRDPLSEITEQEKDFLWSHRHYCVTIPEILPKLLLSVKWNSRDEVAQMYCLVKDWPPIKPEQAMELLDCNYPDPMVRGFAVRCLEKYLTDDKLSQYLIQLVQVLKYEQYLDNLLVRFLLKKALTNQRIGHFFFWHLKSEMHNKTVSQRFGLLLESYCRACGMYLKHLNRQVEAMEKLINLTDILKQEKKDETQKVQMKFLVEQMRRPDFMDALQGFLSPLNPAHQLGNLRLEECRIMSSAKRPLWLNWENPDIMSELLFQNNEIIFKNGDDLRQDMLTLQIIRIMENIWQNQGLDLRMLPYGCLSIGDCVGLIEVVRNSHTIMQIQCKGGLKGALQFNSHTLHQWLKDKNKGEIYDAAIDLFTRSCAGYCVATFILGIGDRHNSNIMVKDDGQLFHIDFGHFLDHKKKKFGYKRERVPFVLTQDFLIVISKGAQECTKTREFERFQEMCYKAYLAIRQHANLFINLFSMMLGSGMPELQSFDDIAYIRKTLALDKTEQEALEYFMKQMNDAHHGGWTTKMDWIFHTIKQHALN
Source text: as §2, §3

MCF7 = assay: NCI panel growth inhibition, MCF7; assay type: cell-based; details: Homo sapiens, Breast Cancer
Source text: as §1

LOX IMVI = assay: NCI panel growth inhibition, LOX IMVI; assay type: cell-based; details: Homo sapiens, Melanoma
Source text: as §1

DU-145 = assay: NCI panel growth inhibition, DU-145; assay type: cell-based; details: Homo sapiens, Prostate
Source text: as §1

EKVX = assay: NCI panel growth inhibition, EKVX; assay type: cell-based; details: Homo sapiens, Non-Small Cell Lung Cancer
Source text: as §1

KM12 = assay: NCI panel growth inhibition, KM12; assay type: cell-based; details: Homo sapiens, Colon Cancer
Source text: as §1

NCI-H226 = assay: NCI panel growth inhibition, NCI-H226; assay type: cell-based; details: Homo sapiens, Non-Small Cell Lung Cancer
Source text: as §1

in vivo = details: rat, 60 mg/kg/day
Procedure: Compound I was dosed at 60, 120, or 240 mg/kg/day administered as a single dose for up to 14 days in healthy rats. […] The peak concentration of compound I (Cmax) and area under the curve (AUC) for tolerated doses were higher than those observed with effective doses of Compound I in the xenograft model tumors in mice.

COLO 205 = assay: NCI panel growth inhibition, COLO 205; assay type: cell-based; details: Homo sapiens, Colon Cancer
Source text: as §1

Work on C[C@H](Nc1ncnc2[nH]cnc12)c1nc2ccc(F)cc2c(=O)n1-c1ccccc1 [Compound I] yielded a GI50 (SK-MEL-28) of 12.8 µM, a GI50 (HCT-15) of 30.3 µM and a GI50 (SF-268) of 1.89 µM. For the same compound, the GI50 (IGROV1) was 2.7 µM, the “Tumor volume of A498 xenograft” value (A498 xenografts) was “significantly inhibited growth; also recorded: tumor volume approximately doubled” and the “Tumor volume of A498 xenograft” value (A498 xenografts; listed as compound I) was “significant reduction in tumor growth”. The GI50 (HOP-92) was 0.3 µM, the EC50 (p110β) was 0.15 µM and ~0.15 µM and the “Phosphorylation of Akt” value [1] was “inhibits phosphorylation of Akt”. It also gave a GI50 (PC-3) of 0.647 µM, a GI50 (SN12C) of 22.5 µM and a GI50 (ACHN) of 10.7 µM. The GI50 (SNB-75) was 0.0594 µM, the GI50 (SK-MEL-2) was 100 µM and the IC50 (PIKC3) was 2.5 µM. The GI50 (CAKI-1) was 1.01 µM, the GI50 (HS 578T) was 2.24 µM and the GI50 (A549) was 20.7 µM. For the same compound, the IC50 (DNA-PK) was 13 µM, the GI50 (SW-620) was 69.3 µM and the GI50 (SF-295) was 1.81 µM. It also gave a GI50 (SF-539) of 15.9 µM, an EC50 (p110α) of over 2 µM and a GI50 (MCF7) of 2.54 µM. The GI50 (LOX IMVI) was 36.1 µM, the GI50 (DU-145) was 1.35 µM and the GI50 (EKVX) was 16.7 µM. For the same compound, the GI50 (KM12) was 2 µM, the GI50 (NCI-H226) was 100 µM and the AUC (in vivo) was 58 µg·h/mL. It also gave a Cmax (in vivo) of 7.3 µg/mL and a GI50 (COLO 205) of 33.8 µM.

From patent publication US8546409B2, “Methods of treatment for solid tumors” (priority 2009, dated 2013)
